Measured values from PubChem BioAssay (NCI).
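Interpolation was linear, between the two tested concentrations surrounding the appropriate level; five concentrations were tested over 48 hours in 96-well plates. TGI marks complete inhibition of growth.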

Assays:
Experiment in all cases: NCI anticancer screen, dose series, 48 h
HT29 colon = test system: HT29 colon
SK-MEL-28 melanoma = test system: SK-MEL-28 melanoma
KM20L2 colon = test system: KM20L2 colon
IGROV1 ovarian = test system: IGROV1 ovarian
HOP-18 NSCLC = test system: HOP-18 NSCLC
OVCAR-5 ovarian = test system: OVCAR-5 ovarian
MALME-3M melanoma = test system: MALME-3M melanoma
U251 CNS = test system: U251 CNS
RXF 393 renal = test system: RXF 393 renal
NCI-H460 lung = test system: NCI-H460 lung
NCI-H226 lung = test system: NCI-H226 lung
SNB-19 CNS = test system: SNB-19 CNS
SF-268 CNS = test system: SF-268 CNS
UACC-62 melanoma = test system: UACC-62 melanoma
UO-31 renal = test system: UO-31 renal
HCC-2998 colon = test system: HCC-2998 colon
NCI-H522 lung = test system: NCI-H522 lung
OVCAR-3 ovarian = test system: OVCAR-3 ovarian
LXFL 529 NSCLC = test system: LXFL 529 NSCLC
KM12 colon = test system: KM12 colon
A498 renal = test system: A498 renal
ACHN renal = test system: ACHN renal
DLD-1 colon = test system: DLD-1 colon
RPMI-8226 leukemia = test system: RPMI-8226 leukemia
TK-10 renal = test system: TK-10 renal
A549 NSCLC = test system: A549 NSCLC
SF-295 CNS = test system: SF-295 CNS
HL-60(TB) leukemia = test system: HL-60(TB) leukemia
SK-MEL-5 melanoma = test system: SK-MEL-5 melanoma
SK-OV-3 ovarian = test system: SK-OV-3 ovarian
XF 498 CNS = test system: XF 498 CNS
SF-539 CNS = test system: SF-539 CNS
786-0 renal = test system: 786-0 renal
SW-620 colon = test system: SW-620 colon
M19-MEL melanoma = test system: M19-MEL melanoma
HCT-116 colon = test system: HCT-116 colon
SR leukemia = test system: SR leukemia
CAKI-1 renal = test system: CAKI-1 renal
HCT-15 colon = test system: HCT-15 colon
HOP-62 NSCLC = test system: HOP-62 NSCLC
M14 melanoma = test system: M14 melanoma
MOLT-4 leukemia = test system: MOLT-4 leukemia
UACC-257 melanoma = test system: UACC-257 melanoma
EKVX NSCLC = test system: EKVX NSCLC
K-562 leukemia = test system: K-562 leukemia
LOX IMVI melanoma = test system: LOX IMVI melanoma
CCRF-CEM leukemia = test system: CCRF-CEM leukemia
OVCAR-8 ovarian = test system: OVCAR-8 ovarian
COLO 205 colon = test system: COLO 205 colon
NCI-H23 lung = test system: NCI-H23 lung
SN12C renal = test system: SN12C renal
HOP-92 NSCLC = test system: HOP-92 NSCLC
RXF-631 renal = test system: RXF-631 renal
DMS 114 small cell lung = test system: DMS 114 small cell lung
OVCAR-4 ovarian = test system: OVCAR-4 ovarian
SNB-75 CNS = test system: SNB-75 CNS
SK-MEL-2 melanoma = test system: SK-MEL-2 melanoma
DMS 273 small cell lung = test system: DMS 273 small cell lung
SNB-78 CNS = test system: SNB-78 CNS

SMILES: N#CC(/C(CCCC(=O)Nc1cccc([N+](=O)[O-])c1)=N/NC(=O)c1cc2ccccc2cc1O)c1ccccc1 (stereo unspecified)
- TGI (HT29 colon): > 100 µM
- TGI (SK-MEL-28 melanoma): > 100 µM
- TGI (KM20L2 colon): > 100 µM
- TGI (IGROV1 ovarian): > 100 µM
- TGI (HOP-18 NSCLC): > 100 µM
- TGI (OVCAR-5 ovarian): > 100 µM
- TGI (MALME-3M melanoma): > 100 µM
- TGI (U251 CNS): > 100 µM
- TGI (RXF 393 renal): 72.3 µM
- TGI (NCI-H460 lung): > 100 µM
- TGI (NCI-H226 lung): > 100 µM
- TGI (SNB-19 CNS): > 100 µM
- TGI (SF-268 CNS): > 100 µM
- TGI (UACC-62 melanoma): 45 µM
- TGI (UO-31 renal): > 100 µM
- TGI (HCC-2998 colon): > 100 µM
- TGI (NCI-H522 lung): 56.9 µM
- TGI (OVCAR-3 ovarian): > 100 µM
- TGI (LXFL 529 NSCLC): > 100 µM
- TGI (KM12 colon): > 100 µM
- TGI (A498 renal): 92.8 µM
- TGI (ACHN renal): > 100 µM
- TGI (DLD-1 colon): > 100 µM
- TGI (RPMI-8226 leukemia): > 100 µM
- TGI (TK-10 renal): > 100 µM
- TGI (A549 NSCLC): > 100 µM
- TGI (SF-295 CNS): > 100 µM
- TGI (HL-60(TB) leukemia): 48.7 µM
- TGI (SK-MEL-5 melanoma): 40.8 µM
- TGI (SK-OV-3 ovarian): > 100 µM
- TGI (XF 498 CNS): 63 µM
- TGI (SF-539 CNS): 72.5 µM
- TGI (786-0 renal): 96.3 µM
- TGI (SW-620 colon): > 100 µM
- TGI (M19-MEL melanoma): 34.9 µM
- TGI (HCT-116 colon): > 100 µM
- TGI (SR leukemia): > 100 µM
- TGI (CAKI-1 renal): > 100 µM
- TGI (HCT-15 colon): > 100 µM
- TGI (HOP-62 NSCLC): > 100 µM
- TGI (M14 melanoma): 39.6 µM
- TGI (MOLT-4 leukemia): > 100 µM
- TGI (UACC-257 melanoma): 98.5 µM
- TGI (EKVX NSCLC): > 100 µM
- TGI (K-562 leukemia): > 100 µM
- TGI (LOX IMVI melanoma): 49.4 µM
- TGI (CCRF-CEM leukemia): 43.3 µM
- TGI (OVCAR-8 ovarian): > 100 µM
- TGI (COLO 205 colon): 46.9 µM
- TGI (NCI-H23 lung): 61.5 µM
- TGI (SN12C renal): > 100 µM
- TGI (HOP-92 NSCLC): 95.9 µM
- TGI (RXF-631 renal): > 100 µM
- TGI (DMS 114 small cell lung): 45.5 µM
- TGI (OVCAR-4 ovarian): > 100 µM
- TGI (SNB-75 CNS): > 100 µM

SMILES: COc1cccc(/C=C2\CCC(CCN(C)C)(C3=CCCC3)C2=O)c1 (stereo unspecified)
- TGI (HT29 colon): 29.2 µM
- TGI (SK-MEL-28 melanoma): 31.3 µM
- TGI (IGROV1 ovarian): 32.5 µM
- TGI (HOP-18 NSCLC): 27.2 µM
- TGI (OVCAR-5 ovarian): 28.1 µM
- TGI (MALME-3M melanoma): 31.2 µM
- TGI (U251 CNS): 30.6 µM
- TGI (RXF 393 renal): 21.7 µM
- TGI (NCI-H460 lung): 29.9 µM
- TGI (NCI-H226 lung): 31.2 µM
- TGI (SNB-19 CNS): 31.1 µM
- TGI (SF-268 CNS): 45.6 µM
- TGI (UACC-62 melanoma): 30 µM
- TGI (UO-31 renal): 26.5 µM
- TGI (HCC-2998 colon): 30.4 µM
- TGI (NCI-H522 lung): 26.9 µM
- TGI (OVCAR-3 ovarian): 34 µM
- TGI (LXFL 529 NSCLC): 28.9 µM
- TGI (KM12 colon): 31 µM
- TGI (A498 renal): 30.8 µM
- TGI (ACHN renal): 30.5 µM
- TGI (DLD-1 colon): 36.4 µM
- TGI (RPMI-8226 leukemia): 41.7 µM
- TGI (TK-10 renal): 29.3 µM
- TGI (A549 NSCLC): 32.6 µM
- TGI (SF-295 CNS): 31.1 µM
- TGI (SK-MEL-5 melanoma): 32.4 µM
- TGI (XF 498 CNS): 31.9 µM
- TGI (SF-539 CNS): 29.7 µM
- TGI (786-0 renal): 27.9 µM
- TGI (SW-620 colon): 27.1 µM
- TGI (M19-MEL melanoma): 30 µM
- TGI (HCT-116 colon): 27.7 µM
- TGI (SR leukemia): 57.4 µM
- TGI (CAKI-1 renal): 25.2 µM
- TGI (HCT-15 colon): 31.1 µM
- TGI (HOP-62 NSCLC): 32 µM
- TGI (M14 melanoma): 27.4 µM
- TGI (MOLT-4 leukemia): 34.1 µM
- TGI (SK-MEL-2 melanoma): 29.9 µM
- TGI (UACC-257 melanoma): 28.8 µM
- TGI (K-562 leukemia): 36 µM
- TGI (LOX IMVI melanoma): 30.2 µM
- TGI (CCRF-CEM leukemia): 40.8 µM
- TGI (OVCAR-8 ovarian): 32.1 µM
- TGI (COLO 205 colon): 21.3 µM
- TGI (NCI-H23 lung): 41.4 µM
- TGI (SN12C renal): 28.6 µM
- TGI (HOP-92 NSCLC): 28.6 µM
- TGI (RXF-631 renal): 43.4 µM
- TGI (DMS 114 small cell lung): 31.4 µM
- TGI (OVCAR-4 ovarian): 30.5 µM
- TGI (DMS 273 small cell lung): 28 µM
- TGI (SNB-75 CNS): 35 µM

SMILES: CC1CC2OC(=O)CC2C[C@@H]1O[Si](C)(C)C(C)(C)C (stereo partly specified)
- TGI (HT29 colon): > 100 µM
- TGI (KM20L2 colon): > 100 µM
- TGI (IGROV1 ovarian): > 100 µM
- TGI (HOP-18 NSCLC): > 100 µM
- TGI (OVCAR-5 ovarian): > 100 µM
- TGI (MALME-3M melanoma): > 100 µM
- TGI (NCI-H460 lung): > 100 µM
- TGI (SNB-19 CNS): > 100 µM
- TGI (SF-268 CNS): > 100 µM
- TGI (UACC-62 melanoma): > 100 µM
- TGI (UO-31 renal): > 100 µM
- TGI (HCC-2998 colon): > 100 µM
- TGI (OVCAR-3 ovarian): > 100 µM
- TGI (LXFL 529 NSCLC): > 100 µM
- TGI (KM12 colon): > 100 µM
- TGI (ACHN renal): > 100 µM
- TGI (DLD-1 colon): > 100 µM
- TGI (RPMI-8226 leukemia): 51.8 µM
- TGI (TK-10 renal): > 100 µM
- TGI (A549 NSCLC): > 100 µM
- TGI (SF-295 CNS): > 100 µM
- TGI (HL-60(TB) leukemia): 45.5 µM
- TGI (SK-MEL-5 melanoma): 97.4 µM
- TGI (SK-OV-3 ovarian): > 100 µM
- TGI (SF-539 CNS): > 100 µM
- TGI (786-0 renal): > 100 µM
- TGI (SW-620 colon): > 100 µM
- TGI (M19-MEL melanoma): > 100 µM
- TGI (HCT-116 colon): > 100 µM
- TGI (CAKI-1 renal): > 100 µM
- TGI (HCT-15 colon): > 100 µM
- TGI (HOP-62 NSCLC): > 100 µM
- TGI (M14 melanoma): > 100 µM
- TGI (MOLT-4 leukemia): 56.7 µM
- TGI (SK-MEL-2 melanoma): > 100 µM
- TGI (UACC-257 melanoma): > 100 µM
- TGI (EKVX NSCLC): > 100 µM
- TGI (K-562 leukemia): > 100 µM
- TGI (LOX IMVI melanoma): > 100 µM
- TGI (CCRF-CEM leukemia): > 100 µM
- TGI (OVCAR-8 ovarian): > 100 µM
- TGI (SNB-78 CNS): > 100 µM
- TGI (COLO 205 colon): > 100 µM
- TGI (NCI-H23 lung): > 100 µM
- TGI (SN12C renal): > 100 µM
- TGI (HOP-92 NSCLC): 34.7 µM
- TGI (RXF-631 renal): > 100 µM
- TGI (DMS 114 small cell lung): 89.4 µM
- TGI (OVCAR-4 ovarian): > 100 µM
- TGI (DMS 273 small cell lung): > 100 µM
- TGI (SNB-75 CNS): > 100 µM
